Data taken from ChEMBL document CHEMBL1129417, “Glucose transport-enhancing and hypoglycemic activity of 2-methyl-2-phenoxy-3-phenylpropanoic acids” (1996).
“And” between values parts separate entries of the source, which are not always exact repeats. Equal entries are not always repeated.

Legend:
Type in all cases: functional
Mus musculus [1] = test: In vivo hypoglycemic activity expressed as glucose lowering relative to positive control in 6-8 week old C57BL/6J ob/ob mouse at 10 mg/kg
Rattus norvegicus = species on record: Rattus norvegicus; test: Inhibition of gluconeogenesis in rat
3T3-L1 [2] = test: Acute effects in vitro by measuring 2-deoxyglucose (2DG) uptake in vehicle treated 3T3-L1 adipocytes at 30 uM dose.
Mus musculus [3] = test: In vivo hypoglycemic activity expressed as glucose lowering relative to positive control in 6-8 week old C57BL/6J ob/ob mouse at 5 mg/kg.
3T3-L1 [4] = test: Acute effects in vitro by measuring 2-deoxyglucose (2DG) uptake in vehicle treated 3T3-L1 adipocytes at 10 uM dose.
Mus musculus [5] = test: In vivo hypoglycemic activity expressed as glucose lowering relative to positive control in 6-8 week old C57BL/6J ob/ob mouse at 1 mg/kg.
3T3-L1 [6] = test: In vitro by measurements of 2-Deoxyglucose (2DG) uptake in vehicle treated 3T3-L1 adipocytes at 3 uM dose.
3T3-L1 [7] = test: In vitro measurements of 2-Deoxyglucose (2DG) uptake in vehicle treated 3T3-L1 adipocytes at 60 uM dose.
3T3-L1 [8] = test: In vitro measurements 2-Deoxyglucose (2DG) uptake in vehicle treated 3T3-L1 adipocytes at 100 uM dose.
Mus musculus [9] = test: compound was tested in vivo for hypoglycemic activity expressed as Glucose lowering relative to positive control in 6-8 week old C57BL/6J ob/ob mouse at 50 mg/kg
[10] = Rattus norvegicus, read-out: ED50

SMILES	Hypoglycemic activity (Mus musculus [1]) [%]	ED50 (Rattus norvegicus; [10]) [mg/kg]	Basal uptake (3T3-L1 [2])	Hypoglycemic activity (Mus musculus [3]) [%]	Basal uptake (3T3-L1 [4]) [%]	other results
CC(C)c1ccc(OC(C)(Cc2ccc(Cl)cc2)C(=N)NO)cc1 (stereo not given)	27	> 10				
Cc1cccc(CC(C)(Oc2ccc(C(C)C)cc2)C(=O)[O-])c1.[Na+] (stereo not given)	83	< 1	84%	83	98	Hypoglycemic activity (Mus musculus [5]): 63%; Basal uptake (3T3-L1 [6]): 93%
CC(C)c1ccc(OC(C)(C(=O)O)C(C)c2ccc(Cl)cc2)cc1 (stereo in doubt; 85)			131%		128	Hypoglycemic activity (Mus musculus [1]; 10 mg/kg): 46%; ED50 (Rattus norvegicus): >10 mg/kg; Basal uptake (3T3-L1 [7]): 209%
CC(Cc1ccc(Cl)cc1)(Oc1ccc(Oc2ccccc2)cc1)C(=O)O (stereo not given)	108	< 1		100		Hypoglycemic activity (Mus musculus [5]): 60%
CCCCc1cccc(CC(C)(Oc2ccc(C(C)C)cc2)C(=O)[O-])c1.[Na+] (stereo not given)	91	1	113%	85	129	Hypoglycemic activity (Mus musculus [5]): <0%
CCc1cccc(CC(C)(Oc2ccc(C3CCSc4ccccc43)cc2)C(=O)[O-])c1.[Na+] (stereo not given)	35	> 10			113	Basal uptake (3T3-L1 [6]): 116% and 104%
CC(Cc1ccc(Cl)cc1)(Oc1ccc(Cc2ccc(Cl)cc2)cc1)C(=O)[O-].[Na+] (stereo not given)	<0	> 10	112% and 90%		94	
COc1ccccc1CC(Oc1ccc(C(C)C)cc1)C(=O)O (stereo not given)	<0	> 10				Basal uptake (3T3-L1 [7]): 78%
CC(C)c1ccc(OC(C)(Cc2ccc(Cl)cc2)C(=O)NS(C)(=O)=O)cc1 (stereo not given)		5	255%	0	100	Hypoglycemic activity (Mus musculus [1]; 10 mg/kg): 96% and 100%; Basal uptake (3T3-L1 [7]): 200%
CC(Cc1ccc(Cl)cc1)(Oc1ccc(Cc2ccccc2)cc1)C(=O)[O-].[Na+] (stereo not given)	96	1	109%	100		Basal uptake (3T3-L1 [7]): 214%; Hypoglycemic activity (Mus musculus [5]): 44%
CCCc1ccc(CC(C)(Oc2ccc(C(C)C)cc2)C(=O)NS(=O)(=O)C(F)(F)F)cc1 (stereo not given)	35	> 10				
CCCCc1ccc(CC(C)(Oc2ccc(C(C)C)cc2)C(=O)[O-])cc1.[Na+] (stereo not given)	130	1	200%	92	94	Hypoglycemic activity (Mus musculus [5]): 17%; Basal uptake (3T3-L1 [6]): 82%
CC(C)c1ccc(OC(C)(C(=O)O)C2CCc3cc(Cl)ccc32)cc1 (stereo in doubt; 100)			89%	78	83	Hypoglycemic activity (Mus musculus [1]; 10 mg/kg): 105%; ED50 (Rattus norvegicus): 1 mg/kg; Hypoglycemic activity (Mus musculus [5]): 14%; Basal uptake (3T3-L1 [6]): 85%
CC(C)c1ccc(OC(C)(COP(=O)([O-])[O-])Cc2ccc(Cl)cc2)cc1.[Ca+2] (stereo not given)	50	> 10				
CCC(Cc1ccc(Cl)cc1)(Oc1ccc(C(C)C)cc1)C(=O)[O-].[Na+] (stereo not given)		> 5		36		Basal uptake (3T3-L1 [8]): 156%
Cc1ccc(CC(C)(Oc2ccc(C(C)C)cc2)C(=O)[O-])cc1.[Na+] (stereo not given)	106	< 1		100		Basal uptake (3T3-L1 [8]): 92%; Hypoglycemic activity (Mus musculus [5]): 58%
CC(C)c1ccc(OC(C)(C(=O)O)C2CCc3cc(Cl)ccc32)cc1 (stereo in doubt; 101)			85%		86	Hypoglycemic activity (Mus musculus [1]; 10 mg/kg): 35%; ED50 (Rattus norvegicus): >10 mg/kg; Basal uptake (3T3-L1 [6]): 71%
CC(Cc1ccc(Cl)cc1)(Oc1ccc(Br)cc1)C(=O)O (stereo not given)	22	< 1	134%		109	Basal uptake (3T3-L1 [6]): 120%
COc1ccc(CC(C)(Oc2ccc(C(C)C)cc2)C(=O)O)cc1 (stereo not given)	41	> 10				
CC(C)c1ccc2c(c1)C(c1ccc(Cl)cc1)C(C(=O)O)O2 (stereo not given)		> 50				Hypoglycemic activity (Mus musculus [9]): 25%; Basal uptake (3T3-L1 [7]): 89%
COc1ccc(S(=O)(=O)NC(=O)C(C)(Oc2ccc(C(C)C)cc2)C(C)c2ccc(Cl)cc2)cc1 (stereo not given)	16	> 10	162%		113	Basal uptake (3T3-L1 [6]): 130%
CC(C)c1ccc(OC(C)(Cc2ccc(Cl)c(Cl)c2)C(=O)O)cc1 (stereo not given)	111	5		24		Hypoglycemic activity (Mus musculus [5]): 0%
Cc1ccc(S(=O)(=O)C(Cc2ccc(Cl)cc2)C(=O)O)cc1 (stereo not given)		> 50				Hypoglycemic activity (Mus musculus [9]): <0%; Basal uptake (3T3-L1 [7]): 89%
CC(C)c1ccc(OC(C)(Cc2ccc3ccccc3c2)C(=O)O)cc1 (stereo not given)	46	> 10				

SMILES	Hypoglycemic activity (Mus musculus [1]) [%]	ED50 (Rattus norvegicus; [10]) [mg/kg]	Basal uptake (3T3-L1 [2])	Hypoglycemic activity (Mus musculus [3]) [%]	Basal uptake (3T3-L1 [4]) [%]	other results
CC(C)c1ccc(OC(C)(Cc2ccc3c(c2)CCCC3)C(=O)[O-])cc1.[Na+] (stereo not given)	99	< 5		75		
CC(C)c1ccc(OC(C)(Cc2ccc(C(C)(C)C)cc2)C(=O)O)cc1 (stereo not given)	102	5	213% and 103%	47	104	Hypoglycemic activity (Mus musculus [5]): 41%
CC(Cc1ccc(Cl)cc1)(Oc1ccc(C2CCSCC2)cc1)C(=O)[O-].[Na+] (stereo not given)	64	< 10				Basal uptake (3T3-L1 [7]): 108%
CC(Cc1ccc(Cl)cc1)(Oc1ccccc1Cc1ccc(Cl)cc1)C(=O)[O-].[Na+] (stereo not given)	52	10	97% and 100%		88	
CCc1ccc(CC(C)(Oc2ccc(Cc3ccccc3)cc2)C(=O)[O-])cc1.[Na+] (stereo not given)	107	1		104		Hypoglycemic activity (Mus musculus [5]): 44%
CCc1ccc(CC(C)(Oc2ccc(C(C)C)cc2)C(=O)NS(=O)(=O)C(F)(F)F)cc1 (stereo not given)	27	> 10				
CC(C)C1CCC(OC(C)(Cc2ccc(Cl)cc2)C(=O)[O-])CC1.[Na+] (stereo not given)	<0	> 10				
CC(C)c1ccc(OC(C)(CO)Cc2ccc(Cl)cc2)cc1 (stereo not given)	<0	10	118%		121	Basal uptake (3T3-L1 [6]): 118%
COc1ccccc1CC(C)(Oc1ccc(C(C)C)cc1)C(=O)O (stereo not given)	<0	> 10	122%		100	Basal uptake (3T3-L1 [7]): 120%
CCc1ccc(CC(C)(Oc2ccc(Oc3ccccc3)cc2)C(=O)O)cc1 (stereo not given)	130	1		113		Hypoglycemic activity (Mus musculus [5]): 48%
CC(C)c1ccc(OC(C(=O)O)C(C)c2ccc(Cl)cc2)cc1 (stereo not given)	17	> 10				Basal uptake (3T3-L1 [7]): 111%
CCc1ccccc1CC(C)(Oc1ccc(C(C)C)cc1)C(=O)[O-].[Na+] (stereo not given)	95	5		53		Hypoglycemic activity (Mus musculus [5]): 32%
Cc1ccccc1S(=O)(=O)NC(=O)C(C)(Cc1ccc(Cl)cc1)Oc1ccc(C(C)C)cc1 (stereo not given)	<0	> 10	232% and 126%		251	
CC(C)c1ccc(OC(C)(Cc2ccc(Cl)cc2)C(=O)/N=C(\N)NO)cc1 (stereo not given)	49	10		44		Hypoglycemic activity (Mus musculus [5]): <0%
COc1ccc(S(=O)(=O)NC(=O)C(C)(Cc2ccc(Cl)cc2)Oc2ccc(C(C)C)cc2)cc1 (stereo not given)	22	> 10	154%		101	Basal uptake (3T3-L1 [7]): 67%
COc1ccc(Cl)cc1C(=O)NCCc1ccc(CC(C)(Oc2ccc(C(C)C)cc2)C(=O)O)cc1 (stereo not given)	24	> 10				
CCCc1ccc(CC(C)(Oc2ccc(Cc3ccccc3)cc2)C(=O)[O-])cc1.[Na+] (stereo not given)	96	1		91		Hypoglycemic activity (Mus musculus [5]): 24%
CC(C)c1ccc2c(c1)CC(Cc1ccc(Cl)cc1)(C(=O)O)O2 (stereo not given)		> 50				Hypoglycemic activity (Mus musculus [9]): <0%; Basal uptake (3T3-L1 [7]): 66%
Cc1cc(C)c(CC(C)(Oc2ccc(C(C)C)cc2)C(=O)[O-])c(C)c1.[Na+] (stereo not given)	77	< 10	106%		148	Basal uptake (3T3-L1 [7]): 173%
CC(C)c1ccc(OC(C)(Cc2ccc(Cl)cc2)c2nnn[nH]2)cc1 (stereo not given)	<0	10	159% and 105%		105	
CC(C)c1ccc(OC(C)(Cc2ccc(Cl)cc2)C(=O)CO)cc1 (stereo not given)	32	> 10				
COc1ccc(Cc2ccc(OC(C)(Cc3ccc(Cl)cc3)C(=O)[O-])cc2)cc1.[Na+] (stereo not given)	74	< 10				
CC(C)c1ccc(OC(C(=O)[O-])C(C)c2ccc(Cl)cc2)cc1.[Na+] (stereo not given)	41	> 10				Basal uptake (3T3-L1 [7]): 98%
